Literature values in paper PMC2362650, “Phase I and pharmacokinetic study of the topoisomerase II catalytic inhibitor fostriecin” (British Journal of Cancer, 1999).

Tested on: murine leukaemia L1210
Set-up: method as in Leopold et al, 1984
Details: ref Leopold et al, 1984; cited from earlier work

C[C@@](O)(/C=C/[C@H]1CC=CC(=O)O1)[C@@H](C[C@@H](O)\C=C/C=C\C=C\CO)OP(=O)(O)O [fostriecin]
activity against L1210: active
